Common to all, as to assay type: cell-based, human
The test system of data set [1] is GIO (gastrointestinal organoids from HiPSCs). The experiment in a line: 10-plex proinflammatory cytokine array of LPS-treated GIO media. On the procedure: 10-plex proinflammatory cytokine (ProC) measurement of LPS and pathogen/non-pathogenic bacterial treated GIO media (supernatant) was assayed using the Luminex multiplexing cytokine suspension array technology (Immune Monitoring Core Facility, USC, CA). Measurements of IL-2, IL-6, IL-8, IL-10, IL-13, TNF-α, INF-γ, MIP-1α and MIP-1β in the supernatant were analyzed using a MilliPlex MAP human cytokine/chemokine magnetic bead panel (MilliporeSigma, St. Louis, MO). Plates were read on a Bio-Plex 200 System using Bio-Plex Manager software version 6.0 (BioRad, Hercules, CA). Five (5) parameter logistic regression algorithms were used to determine cytokine concentrations based on provided cytokine standards and averages from triplicate-wells. Each ProC standard was measured using six known concentrations (10.0 ng, 2.0 ng, 0.4 ng, 0.08 ng, 0.016 ng, 0.0032 ng), and most regression values reached >0.99. Limit of detection: The lower limit of quantitation (LLOQ) for each ProCs are IL-13 (0.257 pg/mL), IL-1β (0.485 pg/mL), IL-2 (0.157 pg/mL), IL-8 (0.299 pg/mL), TNF-α (0.382 pg/mL), IL-6 (0.179 pg/mL), INF-γ (0.562 pg/mL), IL-10 (1.510 pg/mL), MIP-1α (0.273 pg/mL), MIP-1β ([…]). We quantified the UT-GIO, LPS-treated Sus-GIO, and Cryo-GIO with or without pathogenic and non-pathogenic bacteria. After analyzing ProC in each treatment, we conducted statistical analyses to determine the significance of the ProC status of pathogenic versus non-pathogenic bacteria in LPS-treated (Sus-GIO) and untreated GIO (UT-GIO) using GraphPad Prism (San Diego, CA). We have performed two-way ANOVA with Tukey's multiple comparisons using GraphPad Prism. *p<0.05, **p<0.01, ***p<0.001, ****p<0.0001 denotes significance.

Data set [2] concerns microbiota-treated GIO bacterial community. The experiment in a line: Shotgun metagenomics of fecal microbiota-treated GIO. Conditions: LPS-treated GIO vs GIO without LPS, with fecal microbiota. On the procedure: Our UT-GIO and Sus-GIO were treated with fecal microbiota to generate GIO with a complete gut-microbiome system observed in vivo.^38,39 In this context, we first prepared fecal microbiota, purchased from Discovery Life Sciences (DLS). DLS obtains fecal microbiota samples according to their protocol approved by their internal review board (IRB). Then, 100 mg of fecal microbiota was dissolved with sterile PBS and filtered by a 70 μm cell strainer to remove aggregates. Filtered fecal microbiota was further diluted 1:100 using an intestinal expansion medium without penicillin/streptomycin. […] Microbiota-treated GIO with or without LPS and pathogenic/nonpathogenic bacterial culture media sample was analyzed by University of California, San Diego (UCSD) Microbiome Core to obtain metagenomic profiles.
In total, pathogenic and non-pathogenic UT (untreated) and Sus (susceptible)-GIO samples were processed for total DNA extraction and metagenomic library preparation and sequencing. […] Sequencing data were processed first by performing adapter trimming and human-read filtering via pairwise alignments using minimap2. All reads were uploaded into qiita, and taxonomy was assigned using the Web of Life toolkit (WoLtka) implementation in Qiime2 via QIITA (read more here: https://github.com/qiyunzhu/woltka). […]

In data set [3] the test system is GIO (gastrointestinal organoids from HiPSCs). The experiment in a line: MTT cell viability assay of Fresh-GIO and Cryo-GIO. The note with it: LPS 96 h. The method, then: We determined GIO viability after the freeze-thaw cycle using a colorimetric assay to evaluate cell metabolic activity with an MTT [3-(4,5-dimethylthiazol-2-yl)-2,5-diphenyltetrazolium bromide] assay, following the manufacturer's instructions for the assay (MilliporeSigma). To perform the reported established MTT assay^40, we grew GIO in 24-well plates and then treated them with or without LPS for 96 h to observe viability and stability. We added lmg/mL of MTT reagent to each −well containing GIO, followed by the 2 h incubation at 37° C. Further, GIO was washed with sterile PBS, followed by the addition of dimethyl sulfoxide (DMSO) in each—well and mixed. After the 10 min incubation, DMSO was absorbed the MTT and run for a plate reader (SpectraMax iD3 Plate Reader, Molecular Devices, San Jose, CA) with the optical absorption density (OD) of 570 nm to determine the amount of MTT binding in the viable cell. This method determined our GIO's viability and stability after the freeze-thaw cycle with or without inflectional susceptible LPS treatment. We calculated the amount of MTT in each well using the following formula: […]

For data set [4] the test system is unchanged. The experiment in a line: Immunocytochemistry of Zo1 (TJP1) and Ki67 in LPS-treated GIO. The text has this:
Immunocytochemistry (ICC) and flow cytometry is a common cellular protein or antigen-detecting and visualization techniques that can recognize the target of interest or specific marker expression in cells via imaging and a series of flow histograms. The antibody is directly or indirectly linked to a reporter, such as a fluorophore or an enzyme. We performed ICC and flow cytometry as a previously established method developed by the PI.^35, 36 Briefly, for flow cytometry, cells were collected and dissociated with trypsin into a single cell and then blocked with 2% mouse serum and staining with conjugated anti-CDX2 antibody (BD Biosciences) as previously established method^11 and run to NovoCyte Flow Cytometer (Agilent Technologies, Santa Clara, CA). We have verified endodermal marker verification using CDX2 expression using flow cytometry. But for ICC, we have grown GIOs on coverslips coated or directly on the 24-well plates. Then cells were washed with PBS (phosphate-buffered saline) and fixed with 4% paraformaldehyde (PFA, Thermo Scientific). After additional washes in PBS, the cells were permeabilized in 0.1% Triton X-100 (Sigma-Aldrich), followed by blocking with 5% BSA (bovine serum albumin) in PBS containing 10% normal goat serum (NGS, Thermofisher Scientific). Next, the cells were incubated overnight with primary antibodies diluted in a blocking solution at […] with an appropriate dilution indicated by the manufacturer. The next day, the cells were washed three times with washing buffer (1×PBS containing 0.05% Tween 20 and 1% NGS). Then cells were incubated for 2 h at 25° C. with a fluorescent secondary antibody (Life Technologies). […] NGL lab-produced GIO followed a similar developmental pathway in the fetus or fetal mouse^37, including smooth muscle contractile ability determined by smoothA and β-actin,^14 GFAP, and MAP2.

This is an account of results in patent US20230383264A1, “FULLY FUNCTIONAL CONTRACTILE GASTROINTESTINAL ORGANOID SYSTEM, GENERATED FROM HUMAN-INDUCED PLURIPOTENT STEM CELLS TO DEVELOP A HIGH THROUGHPUT SYSTEM FOR DETECTING EXISTING AND NEWLY-EMERGING PATHOGENS, DRUGS, TOXICITY AND THEREOF” (NeyroblastGX LLC,, priority 2022, published 2023).

Several values for one entry are separate records, joined by “and”; a condition that tells them apart may be missing. Identical values can stand only once. Entries after “also recorded” stand apart in the source; their conditions may differ.

As to lipopolysaccharide [LPS], in data set [1] (LPS 100 μg/mL, 48 h only), the “IL-10, IL-1β and IFNγ secretion” value was “upregulated only in 48 h time points; also recorded: upregulated when treated with only 100 μg/mL LPS for 48 h”. Further, the “IL-2, IL-6, IL-8, TNF-α, MIP-1α and MIP-1β secretion” value in data set [1] (LPS 10-100 μg/mL, 24 h and 48 h, dose and time-dependent) is reported as “upregulated”. Moreover, the IL-13 secretion entry in data set [1] (any time point or LPS concentration) is given as “unable to detect”. In addition, in data set [2], the “Change of bacterial community (Bacteroidales bacterium M2)” value is “causes a bloom of an unknown Bacteroides sp; also recorded: caused a bloom of unknown Bacteroides sp”. The “Loss of cell viability (MTT)” value in data set [3] was 15-20% and ~20%. Also, the “Effect on Zo1 immunostaining at earlier time point” value in data set [4] (24-48 h) is on record as “could not see any effect on Zo1”. For the same substance, the “Ki67 (intestinal crypt cell type) expression” value in data set [4] (LPS 100 μg/ml, 96 h) is listed as “decreased”. Moreover, in data set [4] (LPS 50-100 μg/ml, 96 h), the “Effect on TJP1 (Zo1) expression” value is “affects GIO TJP1; also recorded: disrupts endothelial tight junction protein”.
